Key:
Type in all cases: biochemical
Details in all cases: ADP-Glo SIK kinase assay
[1] = biological target: T1, SIK1 (Homo sapiens, UniProt P57059); assay: ADP-Glo kinase assay, SIK1
T1 construct: purchased Carna Biosciences 02-131
Outline: (§1)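 Wells with 1% DMSO or 10 μM staurosporine (final) define the control window. The kinase reaction with substrate and ATP runs 120 min at RT, followed by ADP-Glo detection: ATP depletion (40 min) and ADP-derived luminescence (30 min).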

[2] = biological target: T2, SIK2 (Homo sapiens, UniProt Q9H0K1); assay: ADP-Glo kinase assay, SIK2
T2 construct: purchased ThermoFisher Scientific PV4792
Outline: as §1

[3] = biological target: T3, SIK3 (Homo sapiens, UniProt Q9Y2K2); assay: ADP-Glo kinase assay, SIK3
T3 construct: purchased SignalChem S12-11G-100
Outline: as §1

T1 sequence (P57059 whole entry): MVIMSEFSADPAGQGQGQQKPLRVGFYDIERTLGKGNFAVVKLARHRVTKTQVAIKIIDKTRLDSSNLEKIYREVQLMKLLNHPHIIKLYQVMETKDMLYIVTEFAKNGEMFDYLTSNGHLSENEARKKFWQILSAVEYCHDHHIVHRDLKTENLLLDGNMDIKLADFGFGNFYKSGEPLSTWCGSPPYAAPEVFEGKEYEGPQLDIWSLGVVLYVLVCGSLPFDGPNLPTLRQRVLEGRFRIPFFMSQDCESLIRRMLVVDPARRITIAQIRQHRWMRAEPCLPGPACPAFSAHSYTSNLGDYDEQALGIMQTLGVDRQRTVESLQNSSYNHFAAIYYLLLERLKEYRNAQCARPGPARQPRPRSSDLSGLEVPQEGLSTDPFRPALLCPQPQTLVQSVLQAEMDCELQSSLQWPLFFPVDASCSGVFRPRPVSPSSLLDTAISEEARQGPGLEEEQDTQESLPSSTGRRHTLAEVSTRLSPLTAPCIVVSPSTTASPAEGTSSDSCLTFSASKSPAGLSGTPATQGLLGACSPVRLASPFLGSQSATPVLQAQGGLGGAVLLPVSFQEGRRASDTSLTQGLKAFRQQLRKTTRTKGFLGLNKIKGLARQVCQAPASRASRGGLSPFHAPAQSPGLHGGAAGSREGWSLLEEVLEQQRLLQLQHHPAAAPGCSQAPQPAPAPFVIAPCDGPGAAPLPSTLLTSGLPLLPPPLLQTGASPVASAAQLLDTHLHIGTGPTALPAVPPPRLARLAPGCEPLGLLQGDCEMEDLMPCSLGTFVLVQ
T3 sequence (Q9Y2K2 whole entry): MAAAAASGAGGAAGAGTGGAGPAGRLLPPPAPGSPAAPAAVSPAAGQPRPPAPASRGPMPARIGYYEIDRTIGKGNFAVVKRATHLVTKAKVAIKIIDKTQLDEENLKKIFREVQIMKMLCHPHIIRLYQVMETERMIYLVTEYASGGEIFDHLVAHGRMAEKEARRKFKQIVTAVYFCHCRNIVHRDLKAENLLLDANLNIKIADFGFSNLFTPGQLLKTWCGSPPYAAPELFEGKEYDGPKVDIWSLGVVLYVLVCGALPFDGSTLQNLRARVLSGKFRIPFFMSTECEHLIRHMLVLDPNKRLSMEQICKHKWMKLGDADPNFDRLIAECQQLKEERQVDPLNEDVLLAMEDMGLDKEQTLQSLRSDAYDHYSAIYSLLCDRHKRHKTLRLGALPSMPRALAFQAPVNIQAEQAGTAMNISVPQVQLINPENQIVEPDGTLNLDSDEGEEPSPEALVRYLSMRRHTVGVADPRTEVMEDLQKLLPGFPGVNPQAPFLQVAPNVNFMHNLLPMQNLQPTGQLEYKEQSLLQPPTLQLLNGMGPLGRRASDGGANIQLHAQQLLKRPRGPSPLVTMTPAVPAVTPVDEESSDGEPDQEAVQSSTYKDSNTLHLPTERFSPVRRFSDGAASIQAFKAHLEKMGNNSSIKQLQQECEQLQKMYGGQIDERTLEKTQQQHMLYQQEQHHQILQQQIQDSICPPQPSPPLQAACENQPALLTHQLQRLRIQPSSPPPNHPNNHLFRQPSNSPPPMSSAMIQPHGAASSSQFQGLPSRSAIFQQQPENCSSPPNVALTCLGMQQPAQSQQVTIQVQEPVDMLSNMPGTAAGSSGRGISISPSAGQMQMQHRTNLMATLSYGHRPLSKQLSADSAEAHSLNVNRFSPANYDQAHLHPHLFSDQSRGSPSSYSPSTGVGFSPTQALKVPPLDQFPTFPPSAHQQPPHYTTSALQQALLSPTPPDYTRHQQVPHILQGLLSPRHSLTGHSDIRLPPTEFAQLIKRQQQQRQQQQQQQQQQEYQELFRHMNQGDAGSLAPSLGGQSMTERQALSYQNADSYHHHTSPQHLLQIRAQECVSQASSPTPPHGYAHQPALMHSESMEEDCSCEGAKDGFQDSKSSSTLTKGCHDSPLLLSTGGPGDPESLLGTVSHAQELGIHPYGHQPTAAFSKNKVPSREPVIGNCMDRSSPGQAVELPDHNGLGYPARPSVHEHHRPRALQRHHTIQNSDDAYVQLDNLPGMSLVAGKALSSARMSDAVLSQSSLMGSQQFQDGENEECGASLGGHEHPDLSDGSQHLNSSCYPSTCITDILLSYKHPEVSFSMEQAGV
T2 sequence (Q9H0K1 whole entry): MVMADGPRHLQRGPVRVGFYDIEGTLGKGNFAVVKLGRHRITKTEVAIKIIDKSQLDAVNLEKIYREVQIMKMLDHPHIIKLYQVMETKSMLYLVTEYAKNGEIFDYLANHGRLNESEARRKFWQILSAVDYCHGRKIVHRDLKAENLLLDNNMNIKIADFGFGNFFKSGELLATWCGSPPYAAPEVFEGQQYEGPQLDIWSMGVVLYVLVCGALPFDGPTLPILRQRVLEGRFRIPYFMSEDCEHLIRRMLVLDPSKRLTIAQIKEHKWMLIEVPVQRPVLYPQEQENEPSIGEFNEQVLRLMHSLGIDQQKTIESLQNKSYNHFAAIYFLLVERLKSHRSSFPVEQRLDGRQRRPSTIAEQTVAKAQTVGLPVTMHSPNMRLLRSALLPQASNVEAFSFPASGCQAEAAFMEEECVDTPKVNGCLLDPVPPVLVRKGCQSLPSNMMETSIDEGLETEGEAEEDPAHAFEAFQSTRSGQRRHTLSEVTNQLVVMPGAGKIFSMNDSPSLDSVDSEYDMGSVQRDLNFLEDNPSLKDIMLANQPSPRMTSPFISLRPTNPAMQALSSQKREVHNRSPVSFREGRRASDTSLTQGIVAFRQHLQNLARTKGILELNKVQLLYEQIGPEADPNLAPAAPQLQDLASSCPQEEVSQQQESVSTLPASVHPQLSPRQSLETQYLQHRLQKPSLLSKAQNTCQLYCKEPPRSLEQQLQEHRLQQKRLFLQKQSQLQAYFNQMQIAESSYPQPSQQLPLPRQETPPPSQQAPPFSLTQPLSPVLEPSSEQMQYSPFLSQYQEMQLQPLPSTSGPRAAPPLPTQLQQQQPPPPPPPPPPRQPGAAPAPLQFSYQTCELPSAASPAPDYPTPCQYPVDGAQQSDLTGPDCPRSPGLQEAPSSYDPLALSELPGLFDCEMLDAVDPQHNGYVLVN

Row | SMILES | IC50 [1] [nM] | IC50 [2] [nM] | IC50 [3] [nM]
1 | COc1cc(-c2cnc3cc(OCCC4CC(F)(F)C4)ccn23)cc(OC(F)F)c1C(=O)NC1CC1 [compound 76, N-cyclopropyl-4-[7-[2-(3,3-difluorocyclobutyl)ethoxy]imidazo[1,2-a]pyridin-3-yl]-2-(difluoromethoxy)-6-methoxy-benzamide] | 10 to 100 | 0.01 to 10 | 0.01 to 10
2 | COc1cc(-c2cnc3cc(OC4CCC4)ccn23)cc(OC(F)F)c1C(=O)NC1CC1 [compound 151, 4-[7-(cyclobutoxy)imidazo[1,2-a]pyridin-3-yl]-N-cyclopropyl-2-(difluoromethoxy)-6-methoxy-benzamide] | 10 to 100 | 0.01 to 10 | 0.01 to 10
3 | COc1cc(-c2cnc3cc(OCCN4CCC(F)(F)CC4)ccn23)cc(OC(F)F)c1C(=O)NC1CC1 [Cpd 181, N-cyclopropyl-2-(difluoromethoxy)-4-[7-[2-(4,4-difluoro-1-piperidyl)ethoxy]imidazo [1,2-a]pyridin-3-yl]-6-methoxy-benzamide] | 10 to 100 | 0.01 to 10 | 0.01 to 10
4 | COc1cc(-c2cnc3cc(OCCN(C)c4ccccn4)ccn23)cc(OC(F)F)c1C(=O)NC1CC1 [Cpd 183, N-cyclopropyl-2-(difluoromethoxy)-6-methoxy-4-[7-[2-[methyl(2-pyridyl)amino]ethoxy]imidazo[1,2-a]pyridin-3-yl]benzamide] | 0.01 to 10 | 0.01 to 10 | 0.01 to 10
5 | COc1cc(-c2cnc3cc(OCCCN4CCCC(C#N)C4)ccn23)cc(OC(F)F)c1C(=O)NC1CC1 (stereo not drawn) [compound 346, 4-[7-[3-(3-cyano-1-piperidyl)propoxy]imidazo [1,2-a]pyridin-3-yl]-N-cyclopropyl-2-(difluoromethoxy)-6-methoxy-benzamide] | 10 to 100 | 0.01 to 10 | 0.01 to 10
6 | COc1cc(-c2cnc3cc(OCC4(N)CC4)ccn23)cc(OC(F)F)c1C(=O)NC1CC1 [compound 171, 4-[7-[(1-aminocyclopropyl)methoxy]imidazo[1,2-a]pyridin-3-yl]-N-cyclopropyl-2-(difluoromethoxy)-6-methoxy-benzamide] | 10 to 100 | 0.01 to 10 | 0.01 to 10
7 | COc1cc(-c2cnc3cc(OC[C@H]4CCN(C5COC5)C4)ccn23)cc(OC(F)F)c1C(=O)NC1CC1 [compound 317, N-cyclopropyl-2-(difluoromethoxy)-6-methoxy-4-[7-[[(3S)-1-(oxetan-3-yl)pyrrolidin-3-yl]methoxy]imidazo[1,2-a]pyridin-3-yl]benzamide] | 10 to 100 | 0.01 to 10 | 0.01 to 10
8 | COc1cc(-c2cnc3cc(OCC4CCOCC4)ccn23)cc(OC(F)F)c1C(=O)NC1CC1 [compound 49, N-cyclopropyl-2-(difluoromethoxy)-6-methoxy-4-[7-(tetrahydropyran-4-ylmethoxy)imidazo[1,2-a]pyridin-3-yl] benzamide] | 0.01 to 10 | 0.01 to 10 | 0.01 to 10
9 | COc1cc(-c2cnc3cc(OCC4(F)CNC4)ccn23)cc2c1C(=O)N(CC(F)(F)F)CC2 [compound 250, 6-[7-[(3-fluoroazetidin-3-yl)methoxy]imidazo[1,2-a]pyridin-3-yl]-8-methoxy-2-(2,2,2-trifluoroethyl)-3,4-dihydro isoquinolin-1-one] | 100 to 500 | 0.01 to 10 | 0.01 to 10
10 | COc1cc(-c2cnc3cc(OCC(C)N(C)C)ccn23)cc(OC(F)F)c1C(=O)NC1CC1 (stereo not drawn) [compound 202, N-cyclopropyl-2-(difluoromethoxy)-4-[7-[2-(dimethylamino)propoxy]imidazo[1,2-a]pyridin-3-yl]-6-methoxy-benzamide] | 100 to 500 | 0.01 to 10 | 0.01 to 10
11 | COc1cc(-c2cnc3cc(OCC4CCCN4)ccn23)cc(OC(F)F)c1C(=O)NC1CC1 (stereo not drawn) [Cpd 154, N-cyclopropyl-2-(difluoromethoxy)-6-methoxy-4-[7-(pyrrolidin-2-ylmethoxy)imidazo[1,2-a]pyridin-3-yl]benzamide] | 10 to 100 | 0.01 to 10 | 0.01 to 10

Source: patent US12264156B2, “Compounds and pharmaceutical compositions thereof for the treatment of diseases” (GALAPAGOS NV, priority 2018, dated 2025)
